Read-outs that look alike come from different tables or passages of the source. Marks after values point to notes of the source that are not given here.
Key:
[1] = system: commercial broilers (trials 1 and 2), SPF broilers (trial 3); conditions: in vivo
[2] = system: commercial broilers (trials 1 and 2), SPF broilers (trial 3); conditions: in vivo; remark: listed apart in the source
chickens = system: chickens; design: species or system chicken; conditions: in vivo
[3] = system: commercial broilers (trials 1 and 2), SPF broilers (trial 3); type: in vivo, chicken; conditions: all three trials, vs saline controls
[4] = system: commercial broilers (trials 1 and 2), SPF broilers (trial 3); conditions: in vivo; remark: listed apart in the source
[5] = system: commercial broilers (trials 1 and 2), SPF broilers (trial 3); conditions: 7 dpi
2 week-old chickens = type: in vivo, chicken; conditions: for CBH-2 = (skin thickness, PHA-P injected foot) − (skin thickness, PSS injected foot) / CBH-1 = (skin thickness at 12 h post-injection, left foot) − (pre-injection skin thickness, left foot): 2 week-old chickens, mean ± standard deviation, n = 4; for CBH-1 = (skin thickness at 12 h post-injection, left foot) − (pre-injection skin thickness, left foot): PHA-P

O=P1(N(CCCl)CCCl)NCCCO1 (stereo not shown) [CP, Cyclophosphamide monohydrate]
clinical appearance [1]: decreased feathering and appeared weak
Proventriculus score (severity of proventricular lesions) [2]: 1.00^a
humoral immune response to NDV vaccination (chickens): significantly reduced
bursa size [3]: significantly smaller
bursal microscopic lesions [4]: marked lymphocytic depletion and atrophy of the bursa
thymus size [5]: smaller than the rest of the groups
CBH-2 = (skin thickness, PHA-P injected foot) − (skin thickness, PSS injected foot) (2 week-old chickens; Trial 1, IBDV strain Variant E): .73 ± .01
CBH-1 = (skin thickness at 12 h post-injection, left foot) − (pre-injection skin thickness, left foot) (2 week-old chickens; Trial 1, IBDV strain Variant E): .67 ± .07
CBH-2 = (skin thickness, PHA-P injected foot) − (skin thickness, PSS injected foot) (2 week-old chickens; Trial 2, IBDV strain STC): .69 ± .2
CBH-1 = (skin thickness at 12 h post-injection, left foot) − (pre-injection skin thickness, left foot) (2 week-old chickens; Trial 2, IBDV strain STC): .69 ± .18
CBH-2 = (skin thickness, PHA-P injected foot) − (skin thickness, PSS injected foot) (2 week-old chickens; Trial 3, IBDV strain STC): .31 ± .07
CBH-1 = (skin thickness at 12 h post-injection, left foot) − (pre-injection skin thickness, left foot) (2 week-old chickens; Trial 3, IBDV strain STC): .34 ± .06
CBH response (2 week-old chickens; vs saline control group): small reduction

— patent US20050214316A1 (priority 2003, published 2005)
